For assay [1], the system named is protein tyrosine kinase (PTK). The conditions noted are these: cited from earlier work.
In a further assay the test system is NMDA currents. The conditions noted are these: patch clamp studies; cited from earlier work. For orientation: Patch clamp records ionic current or voltage across a cell membrane.
The next assay has as its system rat arthritis model. The assay can be described thus: Paw withdrawal latency (PWL) to radiant heat in rat kaolin/carrageenan knee joint inflammation model. The assay is classed as in vivo. The conditions noted are these: spinal microdialysis pre-treatment; 4 hours after induction of arthritis. The procedure:
All studies followed the guidelines of the Institute Animal Care and Use Committee, in accordance with the guidelines of the National Institutes of Health. All animals were hosted in a room with a constant ambient temperature of 22° C. and 12 hour light/dark cycle with free access to food and water. Eighty-five Sprague-Dawley rats (250–300 grams) total were used in experiments conducted for biochemical, behavioral, and immunocytochemistry studies. […] On Day 2 baseline behavioral testing was followed by infusion of agents for 1.5 hours (pretreatment) prior to induction of knee joint inflammation under brief anesthesia. Behavioral testing was repeated 4 hours after induction of joint inflammation. Anesthetized animals were either transcardially perfused with aldehydes for immunohistochemical studies or fresh, frozen tissues collected for biochemical studies.
A microdialysis fiber was implanted into the spinal dorsal horn of anesthetized rats (sodium pentobarbital, 50 mg/kg) one day prior to the induction of arthritis according to the procedure of Skilling et al. (J. Neurochem., 51:127–132 (1988)), as described in Sluka et al. (Neurosci. Lett., 145:141–144 (1992)). Briefly, a small midline incision was made in the skin over the T12 vertebral level. The vertebrae were cleared of muscle and two 1 millimeter (mm) holes were drilled in the lateral aspect of both sides of the T12 vertebrae to expose the L4 spinal segment. A microdialysis fiber ([…], 45,000 MW cut-off, Hospal, AN69, Hospal Industrie, Meyzieu, France), was passed transversely across the deep dorsal horn and stabilized with dental cement. The microdialysis fiber was then passed through the holes in the vertebrae and transversely through the dorsal horn of the spinal cord. A 2 mm section of the microdialysis fiber lies in the dorsal horn at the level of L3–4 segment. The tubing was coated with epoxy except for a permeable portion passing through the spinal grey matter. The microdialysis fiber was connected to PE20 tubing (Becton Dickinson and Company, San Mateo, Calif.) which was tunneled under the skin to the nape of the neck. Alternatively as a systemic control for drug administration, the microdialysis fiber was implanted only in the subcutaneous tissue over the back muscle and tunneled to the neck. Artificial cerebrospinal fluid (aCSF) was made as described by Sorkin et al. (J. Neurosci. Methods, 23, 131–138 (1988)) and was infused (5 microliters/minute) for 1.5 hours and then the tube was heat-sealed for use on the following day.
Dose response curves were generated for Genistein with animals receiving Genistein spinally at concentration of 0.2 mM (n=3), 0.5 mM (n=3), 1 mM (n=9), and 2 mM (n=3). Animals received Lavendustin A or B spinally at concentrations of 0.1 mM (n=3), 0.5 mM (n=3), and 1 mM (n=5) as a positive and negative control for Genistein. […] Daidzein was tested at a dose of 1 mM (n=3). […] Eight additional animals received the vehicle, 50% DMSO in aCSF, as a control.
An acute inflammatory response restricted to the knee joint can be induced by the injection of 3% kaolin and 3% carrageenan (in sterile saline; 0.1 ml; pH 7.4) into the joint cavity while the animal is briefly anesthetized with sodium methohexital (Brevital, 60 mg/kg, i.p.). Kaolin and carrageenan were obtained from Fisher Scientific, St. Louis, Mo. The knee joint is flexed manually until the rat awakes (approximately 5–10 minutes). In this arthritis model in the awake rat, localized joint swelling, as well as limping and guarding of the limb, are well developed at 4 hours (Sluka et al., Pain, 59, 95–100 (1994)) when behavioral testing begins.
Fifty-five rats were used for behavioral studies. Four hours after induction of the arthritis, the joint is swollen and increased withdrawal responses to radiant heat and spontaneous guarding of the limb were noted. The increased responsiveness to noxious stimuli indicates the presence of secondary hyperalgesia. […]

For assay [2], the system named is NR1 subunit. The assay can be described thus: Western blot of NR1 in cytosolic and nuclear extracts of SW982 cells. The assay is classed as cell-based, human. The conditions noted are these: 12 hours, increasing concentrations of NMDA. The procedure: The cultured cell lines used in these studies were the human neuroblastoma clonal line, SHSY5Y, and the human synovial sarcoma clonal line, SW982, both available through the American Tissue Type Culture Collection (item number CRL 2266 and HTB-93, respectively). Cells were grown in Dulbecco's Modification of Eagles Medium (DMEM) without L-glutamine, with 4.5 grams/Liter glucose, and with 10% bovine fetal serum in a tissue culture incubator at 37° C. in a gaseous mixture of O2/CO2. Cells were routinely split as necessary to maintain proper cell density. Cells were removed from plates by adding TRYPSIN/EDTA in Hank's Balanced Salt solution. After cell counts, approximately 10,000 cells were plated per well in a culture dish. For experiments, the cells were plated into 35 mm Petri dishes or 6- or 24-well plates as needed. […]
Western blot analysis was used to measure NR1 in both nuclear and cytosolic or total protein extracts using established methods (Kaufmann et al., J. Neurochem., 76, 1099–1108 (2001)). […] After three washes with Tris-buffered saline, immunoreactive bands were detected by a chemiluminescent Western blot detection kit (Amersham, Buckingamshire, UK, Catalog Number RPN2106) according to the manufacturer's instructions.
(In general: A western blot detects proteins with antibodies after separation by electrophoresis.)

Assay [3] concerns NR1 subunit. Briefly: Immunocytochemistry of NR1 translocation in synovial clonal line SW982. The conditions noted are these: synovial clonal cell model. It is filed as cell-based, human. The method, then: The cultured cell lines used in these studies were the human neuroblastoma clonal line, SHSY5Y, and the human synovial sarcoma clonal line, SW982, both available through the American Tissue Type Culture Collection (item number CRL 2266 and HTB-93, respectively). Cells were grown in Dulbecco's Modification of Eagles Medium (DMEM) without L-glutamine, with 4.5 grams/Liter glucose, and with 10% bovine fetal serum in a tissue culture incubator at 37° C. in a gaseous mixture of O2/CO2. Cells were routinely split as necessary to maintain proper cell density. Cells were removed from plates by adding TRYPSIN/EDTA in Hank's Balanced Salt solution. After cell counts, approximately 10,000 cells were plated per well in a culture dish. For experiments, the cells were plated into 35 mm Petri dishes or 6- or 24-well plates as needed.
For immunocytochemistry experiments and some western blot experiments, SW982 cells were exposed to glutamate (1 μM to 10 μM), or glutamate analog NMDA (or related glutamate compound)(5 μM) and Genistein (10 mM). At various timepoints of exposure, including 4, 12, and 24 hours, cells were collected for Western blot measurement of NR1 or fixed with aldehydes and stained to visualize the location of glutamate receptor subunit NR1 using a specific antibody directed to either the C-terminus or the N-terminus of the NR1 protein. […]

For assay [4], the system named is NR1 subunit. The assay can be described thus: Immunocytochemistry of NR1 translocation in neuroblastoma clonal line SHSY5Y. It is filed as cell-based, human. The conditions noted are these: neuroblastoma clonal cell model.

For the molecule `O=c1c(-c2ccc(O)cc2)coc2cc(O)ccc12` [Daidzein], the PTK inhibitory activity entry in assay [1] is “lacks PTK inhibitory activity”. Besides, the “effect on NMDA currents” value in the assay with NMDA currents is recorded as “has no effect on NMDA currents”. Further, the “development of secondary hyperalgesia” value in the assay on rat arthritis model is recorded as “ineffective in altering the nociceptive outcome of knee joint inflammation”.
For the molecule `CN[C@H](CC(=O)O)C(=O)O` [NMDA, N-methyl-D-aspartate], in the assay with NR1 subunit [2], the “NR1 in the cytosol” value is listed as “dose-dependent reduction of NR1 in the cytosol” and the “NR1 in the nuclear compartment” value is “appearance of NR1 in the nuclear compartment”. For the same molecule, in the assay with NR1 subunit [3], the “NR translocation to the nucleus” value is on record as “replicated the visualization of NR translocation to the nucleus”. The “NR translocation to the nucleus” value in the assay with NR1 subunit [4] is given as “replicated the visualization of NR translocation to the nucleus”.

Source of the values: patent US7022484B2, “Methods for treating neuropathological states and neurogenic inflammatory states and methods for identifying compounds useful therein” (Board of Regents, The University of Texas System, priority 2000, dated 2006).
